Measurements reported in patent US7125986B2, “Penicillanic acid derivative compounds and methods of making” (Southern Methodist University Foundation for Research, priority 1997, dated 2006).
Structures can show the parent of a compound that is named as a salt. Where two headings read alike, the source gives them in different places.

Experiments:
[1] = target: β-lactamase of Enterobacter cloacae P99 (Enterobacter cloacae, UniProt P05364); test: β-lactamase inhibition, nitrocefin hydrolysis (P99); assay type: biochemical; conditions: for β-lactamase inhibiting activity greater than compound 9 by a factor, P99: factor relative to compound 9
Chain of β-lactamase of Enterobacter cloacae P99 (P05364 21-381): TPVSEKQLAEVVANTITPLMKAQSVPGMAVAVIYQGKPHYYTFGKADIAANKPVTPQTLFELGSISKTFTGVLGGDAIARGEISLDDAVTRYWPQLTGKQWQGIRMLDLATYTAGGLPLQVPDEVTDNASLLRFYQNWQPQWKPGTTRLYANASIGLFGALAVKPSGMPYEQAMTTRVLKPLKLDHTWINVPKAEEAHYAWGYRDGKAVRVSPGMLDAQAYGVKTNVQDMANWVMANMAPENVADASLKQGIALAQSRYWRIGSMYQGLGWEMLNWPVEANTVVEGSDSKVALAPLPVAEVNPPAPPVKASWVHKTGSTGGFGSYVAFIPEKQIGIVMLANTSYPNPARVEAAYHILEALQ
Experimental: (§1) The IC50 value of each compound was determined as follows. Following a 10 minute incubation of a dilute solution of enzyme (2.56 nM) and inhibitor (<0.64 μM), a 50 μL aliquot of the incubation mixture was further diluted into 1 mL nitrocefin (a substrate) solution, and the rate of hydrolysis was measured during a 1 minute period by monitoring the absorbance of nitrocefin as a function of time.

TEM-1 β-lactamase = TEM-1 β-lactamase (Escherichia coli, UniProt P62593); test: β-lactamase inhibition, nitrocefin hydrolysis (TEM-1); assay type: biochemical
Chain of TEM-1 β-lactamase (P62593 24-286 limits assumed): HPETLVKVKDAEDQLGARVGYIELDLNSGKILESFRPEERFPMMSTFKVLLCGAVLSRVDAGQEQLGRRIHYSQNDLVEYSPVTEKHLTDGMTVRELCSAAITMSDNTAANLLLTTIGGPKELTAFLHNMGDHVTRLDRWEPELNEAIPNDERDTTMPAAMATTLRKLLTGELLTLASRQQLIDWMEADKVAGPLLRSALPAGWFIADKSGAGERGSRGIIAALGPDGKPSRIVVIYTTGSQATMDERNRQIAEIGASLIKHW
Experimental: as §1

[2] = 10 minute incubation of enzyme (2.56 nM) and inhibitor, nitrocefin substrate, read-out: IC50 (uM) Ent. cloacae P99
[3] = 10 minute incubation of enzyme (2.56 nM) and inhibitor, nitrocefin substrate, read-out: IC50 (uM) TEM-1

Compound `C[C@]1(C=CC#N)[C@H](C(=O)O)N2C(=O)/C(=C/C(=O)O)[C@H]2S1(=O)=O` (mixture of isomers) [Compound 17, Disodium Salt of 2β-[(E/Z)-(cyanoethenyl)]-6-[(Z)-carboxymethylene]-penicillinate 1,1-dioxide] has an IC50 [1, 2] of 6.76 µM.

For `CC(=O)OC[C@@]1(C)[C@H](C(=O)O)N2C(=O)/C(=C/C(=O)O)[C@H]2S1(=O)=O` [Compound 8a, Disodium salt of 2β-(acetoxymethyl)-6-[(Z)-carboxymethylene]-penicillinic acid-1,1-dioxide], the IC50 (TEM-1 β-lactamase; [3]) was 0.213 µM, the IC50 [1, 2] was 0.383 µM and the “β-lactamase inhibiting activity greater than compound 9 by a factor, P99” value [1] was roughly 2.

For `CC1(COC(=O)CCl)C(C(=O)O)N2C(=O)C(=CC(=O)O)C2S1(=O)=O` (stereo not drawn) [Compound 8b, Disodium salt of 2β-(chloroacetoxymethyl)-6-[(Z)-carboxymethylene]-penicillinate 1,1-dioxide], the IC50 (TEM-1 β-lactamase; [3]) was 0.19 µM.

For `C[C@]1(COC=O)[C@H](C(=O)O)N2C(=O)/C(=C/C(=O)O)[C@H]2S1(=O)=O` [Compound 8c, Disodium salt of 2β-(formyloxymethyl)-6-[(Z)-carboxymethylene]-penicillinate 1,1-dioxide], the IC50 [1, 2] was 0.3 µM and the “β-lactamase inhibiting activity greater than compound 9 by a factor, P99” value [1] was roughly 2.

Compound `C[C@]1(COC(=O)Cc2ccccc2)[C@H](C(=O)O)N2C(=O)/C(=C/C(=O)O)[C@H]2S1(=O)=O` [Compound 8d, Disodium salt of 2β-(phenylacetoxymethyl)-6-[(Z)-carboxymethylene]-penicillinate 1,1-dioxide] has an IC50 (TEM-1 β-lactamase) of 0.015 µM and an IC50 [1] of 0.54 µM.

`COC(=O)C=C1C(=O)N2C(C(=O)O)C(C)(COC(C)=O)S(=O)(=O)C12` (stereo not drawn) [Compound 8e, Sodium salt of 2β-(acetoxymethyl)-6-[(Z)-(methoxycarbonyl)methylene]-penicillinic acid 1,1 dioxide] gave an IC50 [1, 2] of 2.66 µM.

`Cn1nnnc1SCC(=O)OCC1(C)C(C(=O)O)N2C(=O)C(=CC(=O)O)C2S1(=O)=O` (stereo not drawn) [Compound 8g, Disodium salt of 2β-[[(1-methyl-1H-tetrazol-5-yl)thio]acetoxymethyl]-6-[(Z)-carboxymethylene]penicillinate 1,1-dioxide] was tested, and the IC50 (TEM-1 β-lactamase; [3]) was 0.23 µM and the IC50 [1, 2] was 0.64 µM.

In the case of `COC(=O)/C=C1/C(=O)N2[C@@H](C(=O)O)[C@](C)(COC(=O)CSc3nnnn3C)S(=O)(=O)[C@H]12` [Compound 8h, Sodium salt of 2β-[[(1-methyl-1H-tetrazol-5-yl)thio]acetoxymethyl]-6-[(Z)-(methoxycarbonyl)methylene]penicillinate 1,1-dioxide], the IC50 [1, 2] is reported as 3.69 µM.

In the case of `CC1(COC(=O)Cc2ccc(O)c(O)c2)C(C(=O)O)N2C(=O)C(=CC(=O)O)C2S1(=O)=O` (stereo not drawn) [Compound 8i, Disodium Salt of 2β-[(3′,4′-Dihydroxyphenyl)acetoxy]methyl-6-[(Z)-carboxymethylene]-1,1-dioxopenicillinate], the IC50 [1, 2] is reported as 0.37 µM.

For `CC(C)(C)OC(=O)/C=C1/C(=O)N2[C@@H](C(=O)O)[C@](C)(CCl)S(=O)(=O)[C@H]12` [Compound 12a, Sodium salt of 2β-(chloromethyl)-6-[(Z)-(t-butoxycarbonyl)methylene]-penicillinic acid 1,1 dioxide], the IC50 (TEM-1 β-lactamase; [3]) was 39 µM and the IC50 [1, 2] was 7.62 µM.

For `COC(=O)/C=C1/C(=O)N2[C@@H](C(=O)O)[C@](C)(CCl)S(=O)(=O)[C@H]12` [Compound 12b, Sodium salt of 2β-(chloromethyl)-6-[(Z)-(methoxycarbonyl)methylene]-penicillanic acid 1,1 dioxide], the IC50 [1, 2] was 6.96 µM.

`CC1(CCl)C(C(=O)O)N2C(=O)/C(=C/C(=O)O)C2S1(=O)=O` (stereo not drawn) [Compound 12c, Disodium salt of 2β-(chloromethyl)-6-[(Z)-carboxymethylene]penicillinate 1,1-dioxide] gave an IC50 (TEM-1 β-lactamase; [3]) of 120 µM and an IC50 [1, 2] of 105 µM.

For `CC(=O)OCC1(C)C(C(=O)O)N2C(=O)C(=Cc3ccccn3)C2S1(=O)=O` (stereo not drawn) [Compound 29a, Sodium 2β-(acetoxymethyl)-1,1-dioxo-6-[(Z)-2′-pyridylmethylene]penicillinate], the “β-lactamase inhibiting activity against TEM-1 (in words)” value (TEM-1 β-lactamase) was “potent”, the IC50 (TEM-1 β-lactamase; [3]) was 0.004 µM and the “β-lactamase inhibiting activity against P99 (in words)” value [1] was “potent”. For the same compound, the IC50 [1, 2] was 0.062 µM.

With `C[C@]1(COC(=O)Cc2ccccc2)[C@H](C(=O)O)N2C(=O)/C(=C/c3ccccn3)[C@H]2S1(=O)=O` [Compound 29b, Sodium 1,1-Dioxo-2β-(phenylacetoxy)methyl-6-[(Z)-2′-pyridylmethylene]penicillinate] the IC50 (TEM-1 β-lactamase) was 0.39 µM, the “β-lactamase inhibiting activity against TEM-1 (in words)” value (TEM-1 β-lactamase) was “potent” and the “β-lactamase inhibiting activity against P99 (in words)” value [1] was “potent”.
